Test results: patent publication US11161989B2, “Near-infrared absorbing composition, optical structure, and camera module and electronic device comprising the same” (priority 2018, dated 2021)

Legend:
[1] = Solubility of the copper complex in an organic solvent; assay type: physicochemical; conditions: organic solvent THF
Experimental: In Table 1, the “solubility” is evaluated as °, when greater than or equal to 50 wt % of a copper complex based on 100 wt % of an entire composition is dissolved in a corresponding organic solvent, and as X, when less than 50 wt % of a copper complex based on 100 wt % of an entire composition is dissolved in a corresponding organic solvent, and “ANIR” is measured under a THF concentration condition of 10 mg/m L.
In Table 2, “solubility” uses the same reference as Table 1.

[2] = Wavelength vs. absorbance of near-infrared absorbing compositions (UV-Vis spectrophotometer); assay type: physicochemical; conditions: for A430-565 (average absorbance in a visible light wavelength region) / λNIR (maximum absorption wavelength): 10 mg/mL in THF; for ANIR (maximum absorbance): THF concentration condition of 10 mg/mL; for Absorption area of near-infrared wavelength region: curve integrated from 700 nm to 1100 nm; for Absorption area of near-infrared wavelength region / Cut-off wavelength: composition in THF; for Cut-off wavelength: wavelength of 50% light transmittance after normalizing maximum absorbance to 1
Source text: In Table 3, the “absorption area of a near-infrared wavelength region” is an area obtained by integrating each curve in a wavelength range from 700 nm to 1100 nm in FIG. 7, and the “cut-off wavelength” is a wavelength where each curve has light transmittance of 50% after normalizing absorbance corresponding to a y-axis of FIG. 7 to have a maximum absorbance of 1 and then, converting the normalized absorbance (An) into light transmittance (T) to satisfy Equation 1. T (%)=10^(2-An).

Absorption area of near-infrared wavelength region [2] | Cut-off wavelength [2] [nm] | SMILES | Solubility [1] | A430-565 (average absorbance in a visible light wavelength region) [2] | λNIR (maximum absorption wavelength) [2] [nm] | ANIR (maximum absorbance) [2]
328 | 636 | O=C([O][Cu][O]C(=O)C(F)(F)F)C(F)(F)F [Comparative Example 1, reference compound] | ∘ | 0.020 | 771 | 1.05
144 | 740 | C=C(C)C(=O)OCCOP(=O)(O)[O][Cu][O]P(=O)(O)OCCOC(=O)C(=C)C [Comparative Example 2, reference compound] | ∘ | 0.001 | 826 | 0.42
– | – | CCOP(=O)(O)[O][Cu][O]C(=O)C(F)(F)F [Example 2] | ∘ | 0.013 | 794 | 1.16
– | – | CC(C)OP(=O)(O)[O][Cu][O]C(=O)C(F)(F)F [Example 3] | ∘ | 0.008 | 794 | 1.04
– | – | O=C([O][Cu][O]P(=O)(Oc1ccccc1)Oc1ccccc1)C(F)(F)F [Example 4] | ∘ | 0.005 | 814 | 0.85
– | – | C=C(C)C(=O)OCCOP(=O)(O)[O][Cu][O]C(=O)C(F)(F)F [Example 5] | ∘ | 0.010 | 814 | 0.66
234 | 676 | Cc1ccc(S(=O)(=O)[O][Cu][O]C(=O)C(F)(F)F)cc1 [Example 6] | ∘ | 0.006 | 825 | 0.70
